This is an account of results in article PMC4601051, “Discovery of Indoline-2-carboxamide Derivatives as a New Class of Brain-Penetrant Inhibitors of Trypanosoma brucei” (Journal of Medicinal Chemistry, 2015).

Where “and” joins values, the source holds several entries; their conditions need not be identical. Equal values may be shown once. Read-outs that look alike come from different tables or passages of the source.

Data set [1] in a line: Microsomal intrinsic clearance (Clint), mouse. Format: in vitro ADME. Conditions: mouse liver microsomes, 0.5 μM compound. As to the method: (§1) Each test compound (0.5 μM) was incubated with pooled female CDI mouse liver microsomes, pooled male Sprague–Dawley rat microsomes, or pooled mixed gender human liver microsomes (Tebu-Bio, UK; 0.5 mg/mL 50 mM potassium phosphate buffer, pH 7.4) and the reaction started with addition of excess NADPH (8 mg/mL, 50 mM potassium phosphate buffer, pH 7.4). Immediately, at time zero, then at 3, 6, 9, 15, and 30 min, an aliquot (50 μL) of the incubation mixture was removed and mixed with acetonitrile (100 μL) to stop the reaction. Internal standard was added to all samples, and the samples were centrifuged at 1825g for 10 min to sediment precipitated protein. The plates were then sealed prior to UPLC/MS/MS analysis using a Quattro Premier XE (Waters Corporation, USA).
(§2) XLfit (IDBS, UK) was used to calculate the exponential decay and consequently the rate constant (k) from the ratio of peak area of test compound to internal standard at each time point.
On the technique in general: Microsomes from liver hold many membrane-bound enzymes, among them those of drug oxidation.

Data set [2] is described as follows: Plasma protein binding by equilibrium dialysis, mouse. The data set is classed as in vitro ADME. The following applies: read-out: plasma protein binding, Fu (fraction unbound). As to the method:
(§3) The software package StarDrop by Optibrium was used to calculate physicochemical parameters including log P, molecular weight, and polar surface area (PSA). The aqueous kinetic solubility of the compounds was measured using laser nephelometry as previously described.[40] The plasma protein binding of the compounds was determined by the equilibrium dialysis method.[12]
For orientation: In equilibrium dialysis only unbound substance equilibrates across the membrane.

In data set [3] the test system is panel of receptors, including dopamine, serotonin, histamine, and muscarinic receptors. Nature of the data set: NIMH Psychoactive Drug Screening Program (PDSP) receptor panel. Conditions: significant inhibition is considered > 50%. Format: binding. From the text:
However, the observed toxicity prevents further progression of the compounds. To try and identify a possible driver for toxicity, that may then offer an opportunity to design out this unwanted effect, the key compounds were screened against a panel of receptors at the NIMH Psychoactive Drug Screening Program (PDSP).[36],[37] No significant activity against a large panel of receptors, including dopamine, serotonin, histamine, and muscarinic receptors (see Supporting Information) was observed.
S2: Details of receptors screened at the NIMH Psychoactive Drug Screening Program […]
receptors screened. Significant inhibition is considered > 50%. In cases where negative inhibition (-) is seen, this represents a stimulation of binding. The receptors screened were 5- […]
HT7, Alpha1A, Alpha1B, Alpha1D, Alpha2A, Alpha2B, Alpha2C, Beta1, Beta2, Beta3, BZP rat Brain site, D1, D2, D3, D4, D5, DAT, DOR, GABBA, H1, H2, H3, KOR, M1, M2, M3, M4, M5, MOR, NET, PBR, SERT, Sigma1 and Sigma2

The next data set is described as follows: in vitro. The following applies: human, MRC-5 fibroblasts.
The nature of data set [4]: Mouse brain penetration (brain:blood ratio). The following applies: in vivo, dosed intravenously at 0.5 or 1 mg/kg, levels measured after 5 min, female NMRI mice, read-out: B:B (brain to blood ratio). As to the method: Each compound was dosed as a bolus solution intravenously at 0.5 or 1 mg free base/kg (dose volume, 5 mL/kg; dose vehicle, 10% DMSO; 40% PEG400; 50% Milli-Q water) to female NMRI mice (n = 6). At 5 and 30 min following intravenous bolus injection of test compound, mice (n = 3/time point) were placed under terminal anesthesia with isofluorane. A blood sample was taken by cardiac puncture and mixed with two volumes of distilled water, the mice decapitated, and the brain removed. Diluted blood and brains were stored frozen until preparation and analysis by UPLC/MS/MS. For each mouse at each time point, the concentration in brain (ng/g) was divided by the concentration in blood (ng/mL) to give a brain:blood ratio. The mean value obtained was quoted.

Data set [5] in a line: In vivo mouse pharmacokinetics. Conditions: for Cmax / Tmax / half-life / AUC(0-t) at 8 h / AUC(0-t): female, mouse, in vivo, 10 mg/kg, NMRI mice; for AUC(0-t) at 8 h: read-out: AUC0–8; for AUC(0-t): read-out: AUC0–8 (converted). As to the method:
Each compound was dosed as a bolus solution intraperitoneally at 10 mg free base/kg (dose volume, 10 mL/kg; dose vehicles used, 10% DMSO; 40% PEG400; 50% Milli-Q water or 5% DMSO; 40% PEG400; 55% saline) to female HRN (1 only) or NMRI mice (n = 3) or dosed orally by gavage as a solution at 10 mg free base/kg (dose volume, 10 mL/kg; dose vehicle, 10% DMSO; 40% PEG400; 50% Milli-Q water) to female NMRI mice (n = 3). Female NMRI mice were chosen, as these represent the sex and strain used for the stage 1 and stage 2 HAT efficacy models. Blood samples were taken from each mouse at 5 (IP only), 15, and 30 min, 1, 2, 4, 6, and 8 h post dose, mixed with two volumes of distilled water, and stored frozen until UPLC/MS/MS analysis. Pharmacokinetic parameters were derived from noncompartmental analysis of the blood concentration time curve using PK solutions software v 2.0 (Summit Research Services, USA).

Data set [6] deals with bloodstream form T. brucei brucei. The data set can be described thus: T. b. brucei whole cell parasite (trypanosome growth) assay. The data set is classed as cell-based, Trypanosoma brucei brucei. The following applies: for EC50: Trypanosoma brucei, mean of two or more determinations, 69 h + 4 h resazurin, read-out: T. b. brucei EC50. As to the method:
This was conducted as previously described.[27] Cell culture plates were stamped with 1 μL of an appropriate stock concentration of test compound, followed by addition of 200 μL of trypanosome culture (HMI9-T, 10% FCS) to each well at a density of 2000 cells per well (except column 12 receiving media only). […] Potency was carried out using 10-point dose–response curves.

Data set [7] is described as follows: Aqueous kinetic solubility by laser nephelometry. The data set is classed as physicochemical. The following applies: aqueous medium, Table 7. As to the method:
as §3

Data set [8] in a line: Brain tissue binding by equilibrium dialysis. Format: in vitro ADME. The following applies: Sprague-Dawley, brain homogenate; rat (male SD rat); read-out: brain tissue binding (rat), Fu. As to the method:
In brief, a 96-well equilibrium dialysis apparatus was used to determine the free fraction in the brain for the test compound (HT Dialysis LLC, Gales Ferry, CT). Membranes (12–14 kDa A cutoff) were conditioned in deionized water for 60 min, followed by conditioning in 80:20 deionized water:ethanol for 20 min and then rinsed in artificial cerebrospinal fluid (CSF) before use. Mouse brain was removed from the freezer and allowed to thaw on the day of experiment. […] Diluted brain homogenate was spiked with the test compound (10 ug/g), and 150 μL aliquots (n = 6 replicate determinations) loaded into the 96-well equilibrium dialysis plate. Dialysis vs artificial CSF (150 μL) was carried out for 5 h in a temperature controlled incubator at ca. 37 °C (Stuart scientific Ltd., UK) using an orbital microplate shaker at 125 rpm (Stuart scientific Ltd., UK). […] All samples were analyzed by means of UPLC/MS/MS on a Quattro Premier XE mass spectrometer (Waters Corporation, USA). The unbound fraction was determined as the ratio of the peak area in artificial CSF to that in brain, with correction for dilution factor according to eq 1.[42] […] 1 where D = dilution factor in brain homogenate and Fu,apparent is the measured free fraction of diluted brain homogenate.

Data set [9] is described as follows: Microsomal intrinsic clearance (Clint), rat. Format: in vitro ADME. The following applies: rat liver microsomes, 0.5 μM compound. As to the method: as §1, §2
Data set [10] is described as follows: Microsomal intrinsic clearance (Clint), human. Format: in vitro ADME. Conditions: human liver microsomes, 0.5 μM compound. As to the method:
as §1, §2

Method for in vitro: Proliferation assays using bloodstream form T. brucei brucei and human MRC-5 fibroblasts were conducted using a modification of the cell viability assay as previously reported.[27],[39]
MRC-5 cells (2000 cells per well) were seeded in 200 μL of DMEM, 10% FCS, and allowed to adhere overnight. One microliter of test compound was added to each well on the day of assay initiation.
The final DMSO level was 0.5% in all cases.

In the case of `CNC(=O)C1Cc2ccccc2N1C(=O)COc1ccc(F)cc1` (centres unmarked) [Compound 35, 1-(2-(4-fluorophenoxy)acetyl)-N-methylindoline-2-carboxamide], the “mouse microsomal intrinsic clearance” value in [1] is 1.2 mL min^–1 g^–1 and 1.2/ND mL min^–1 g^–1. For the same compound, the fraction unbound in data set [2] worked out at 0.42. Moreover, the “inhibition against receptors screened” value in data set [3] is “did not show significant inhibitor”. Also, in “in vitro”, the EC50 at 69 h is > 50000 nM. Also, in data set [4], the Kp at 5 min is 1.5. Further, in data set [5] (IP), the Cmax is 910 ng/mL and 2.8 µM; the Tmax came out at 15 min; the half-life is 66 min; the AUC(0-t) at 8 h worked out at 5.6 µM·h. Also, the AUC(0-t) in data set [5] (IP) is 1830 ng·h/mL. In addition, in data set [5] (PO), the peak concentration (Cmax) was 180 ng/mL and 550 nM; the Tmax was 15 min; the half-life was 42 min; the AUC(0-t) at 8 h amounted to 0.8 µM·h. Besides, in data set [5] (PO), the AUC(0-t) is 250 ng·h/mL. Moreover, the EC50 in data set [6] turned out to be 20 nM.

For `CNC(=O)C1Cc2cc(F)ccc2N1C(=O)COc1ccc(F)cc1` (centres unmarked) [Compound 55, 5-fluoro-1-(2-(4-fluorophenoxy)acetyl)-N-methylindoline-2-carboxamide], the solubility in data set [7] was > 100 µg/mL. In data set [1], the “mouse microsomal intrinsic clearance” value amounted to 1.3 mL min^–1 g^–1. Moreover, in data set [8], the fraction unbound at 5 h, 10 ug/g amounted to 0.29. The “microsomal intrinsic clearance, rat” value in data set [9] came out at 2.1 mL min^–1 g^–1. The fraction unbound in data set [2] is 0.33. In addition, the “microsomal intrinsic clearance, human” value in data set [10] is 0.5 mL min^–1 g^–1 and < 0.5 mL min^–1 g^–1. For the same compound, the 50% effective concentration (EC50) at 69 h in the data set “in vitro” was > 50000 nM. In addition, the Kp at 5 min in data set [4] is 1.4. Also, in data set [5] (IP, female NMRI mice), the “higher AUC compared to 1” value was 1.5–6.5 fold. In data set [5] (IP), the Cmax is 2900 ng/mL and 8.4 µM; the Tmax was determined as 60 min; the half-life is 72 min; the AUC(0-t) at 8 h was found to be 34 µM·h. Besides, the AUC(0-t) in [5] (IP) was 11800 ng·h/mL. In [5] (PO), the Cmax is 1500 ng/mL and 4.3 µM; the Tmax is 30 min; the half-life is 120 min; the AUC(0-t) at 8 h was 10 µM·h. Also, the AUC(0-t) in [5] (PO) is 3500 ng·h/mL. Besides, the Hill slope in data set [6] (T. brucei EC50 curve) came out at 4.4. In data set [6], the EC50 was determined as 80 nM.

On to `CNC(=O)C1Cc2cc(F)c(F)cc2N1C(=O)COc1ccc(F)cc1` (centres unmarked) [Compound 57], for which, in [1], the “mouse microsomal intrinsic clearance” value was found to be 2.0 mL min^–1 g^–1. Also, the “microsomal intrinsic clearance, rat” value in data set [9] is listed as 2.8 mL min^–1 g^–1. The “microsomal intrinsic clearance, human” value in [10] is recorded as 1.9 mL min^–1 g^–1. Besides, in “in vitro”, the EC50 at 69 h is > 50000 nM. For the same compound, in data set [6], the EC50 is 90 nM.

Consider `CNC(=O)C1Cc2c(cc(F)c(F)c2F)N1C(=O)COc1ccc(Cl)cc1` (centres unmarked) [Compound 59], for which the “mouse microsomal intrinsic clearance” value in [1] is given as 3.7 mL min^–1 g^–1. Besides, in [9], the “microsomal intrinsic clearance, rat” value is recorded as 6.7 mL min^–1 g^–1. Besides, the “microsomal intrinsic clearance, human” value in [10] worked out at 4.3 mL min^–1 g^–1. In addition, in the data set “in vitro”, the concentration giving a half-maximal response (EC50) at 69 h was > 50000 nM. The EC50 in [6] came to 70 nM.

The term EC50 denotes the midpoint of the concentration-response curve. Broadly, the Cmax is the peak of the concentration-time curve. By Tmax is commonly meant the time at which the peak concentration occurs. By half-life is commonly meant the time needed for the level to fall by half in the phase considered. Read a high half-life as slow decline. The term solubility denotes the dissolved amount per volume that the medium holds. A higher solubility goes with much dissolved substance. As usually defined, the Hill slope is a measure of the steepness of the concentration-response curve.
